Results: ChEMBL document CHEMBL1201862, “PubChem BioAssay data set” (2004)
Active and inactive are the calls of the source.

Columns and labels:
[1] = biological target: T1, 1-phosphatidylinositol 4,5-bisphosphate phosphodiesterase gamma-1 (Homo sapiens, UniProt P19174); test: Counterscreen for inhibitors of phospholipase C isozymes (PLC-B3): Fluorescence-based biochemical high throughput dose response assay to identify inhibitors of phospholipase C isozymes (PLC-gamma1).
T1 sequence (P19174 whole entry): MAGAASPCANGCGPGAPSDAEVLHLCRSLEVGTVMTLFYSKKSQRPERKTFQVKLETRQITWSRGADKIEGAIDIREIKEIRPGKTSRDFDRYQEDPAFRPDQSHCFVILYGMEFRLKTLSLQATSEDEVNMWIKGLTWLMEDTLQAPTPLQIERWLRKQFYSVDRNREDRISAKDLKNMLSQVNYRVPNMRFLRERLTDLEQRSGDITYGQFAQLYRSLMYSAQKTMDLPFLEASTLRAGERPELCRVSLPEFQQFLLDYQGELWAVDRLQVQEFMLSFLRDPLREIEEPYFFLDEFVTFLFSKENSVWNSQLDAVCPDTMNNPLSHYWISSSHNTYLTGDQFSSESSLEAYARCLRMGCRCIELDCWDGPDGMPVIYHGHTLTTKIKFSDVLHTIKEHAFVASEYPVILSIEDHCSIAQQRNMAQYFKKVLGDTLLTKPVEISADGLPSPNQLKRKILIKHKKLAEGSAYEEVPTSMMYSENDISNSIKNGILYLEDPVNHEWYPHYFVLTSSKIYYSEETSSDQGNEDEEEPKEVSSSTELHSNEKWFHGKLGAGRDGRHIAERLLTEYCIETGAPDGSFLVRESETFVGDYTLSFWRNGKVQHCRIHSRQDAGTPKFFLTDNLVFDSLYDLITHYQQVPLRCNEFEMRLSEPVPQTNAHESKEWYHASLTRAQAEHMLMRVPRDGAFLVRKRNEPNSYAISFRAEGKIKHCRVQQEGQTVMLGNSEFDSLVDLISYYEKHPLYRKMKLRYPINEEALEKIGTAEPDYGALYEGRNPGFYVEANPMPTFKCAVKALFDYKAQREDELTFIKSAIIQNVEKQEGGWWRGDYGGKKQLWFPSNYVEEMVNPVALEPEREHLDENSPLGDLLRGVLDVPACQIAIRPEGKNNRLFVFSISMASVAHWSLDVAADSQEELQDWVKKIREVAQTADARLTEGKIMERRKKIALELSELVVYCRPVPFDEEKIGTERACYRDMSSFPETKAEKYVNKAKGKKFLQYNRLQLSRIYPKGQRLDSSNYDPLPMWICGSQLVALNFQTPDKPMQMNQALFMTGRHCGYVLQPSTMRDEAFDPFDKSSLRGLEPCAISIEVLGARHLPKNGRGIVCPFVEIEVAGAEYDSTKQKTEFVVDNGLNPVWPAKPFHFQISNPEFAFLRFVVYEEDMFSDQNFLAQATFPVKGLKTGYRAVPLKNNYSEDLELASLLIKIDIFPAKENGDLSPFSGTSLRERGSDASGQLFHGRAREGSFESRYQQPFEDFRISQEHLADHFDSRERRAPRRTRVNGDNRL

[2] = biological target: T2, RNA-binding protein pos-1 (Caenorhabditis elegans, UniProt G5EF15); test: inhibitors of POS-1/mex-3 RNA binding, dose response, biochemical, fluorescence polarization (AID 1964);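 also: purified POS-1 fused to maltose binding protein made in E. coli; potency of compounds blocking POS-1 binding to fluorescent RNA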
T2 sequence (G5EF15 whole entry): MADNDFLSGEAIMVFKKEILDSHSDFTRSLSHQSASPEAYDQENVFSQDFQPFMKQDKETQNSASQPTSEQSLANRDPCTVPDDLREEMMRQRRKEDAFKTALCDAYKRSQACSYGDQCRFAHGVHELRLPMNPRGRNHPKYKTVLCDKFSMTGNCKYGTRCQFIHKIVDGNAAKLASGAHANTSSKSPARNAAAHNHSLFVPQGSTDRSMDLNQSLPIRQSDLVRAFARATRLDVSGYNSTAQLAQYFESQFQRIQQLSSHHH

[3] = biological target: T3, 1-phosphatidylinositol 4,5-bisphosphate phosphodiesterase beta-3 (Homo sapiens, UniProt Q01970); test: Fluorescence-based biochemical high throughput dose response assay to identify inhibitors of phospholipase C isozymes (PLC-B3).
T3 sequence (Q01970 whole entry): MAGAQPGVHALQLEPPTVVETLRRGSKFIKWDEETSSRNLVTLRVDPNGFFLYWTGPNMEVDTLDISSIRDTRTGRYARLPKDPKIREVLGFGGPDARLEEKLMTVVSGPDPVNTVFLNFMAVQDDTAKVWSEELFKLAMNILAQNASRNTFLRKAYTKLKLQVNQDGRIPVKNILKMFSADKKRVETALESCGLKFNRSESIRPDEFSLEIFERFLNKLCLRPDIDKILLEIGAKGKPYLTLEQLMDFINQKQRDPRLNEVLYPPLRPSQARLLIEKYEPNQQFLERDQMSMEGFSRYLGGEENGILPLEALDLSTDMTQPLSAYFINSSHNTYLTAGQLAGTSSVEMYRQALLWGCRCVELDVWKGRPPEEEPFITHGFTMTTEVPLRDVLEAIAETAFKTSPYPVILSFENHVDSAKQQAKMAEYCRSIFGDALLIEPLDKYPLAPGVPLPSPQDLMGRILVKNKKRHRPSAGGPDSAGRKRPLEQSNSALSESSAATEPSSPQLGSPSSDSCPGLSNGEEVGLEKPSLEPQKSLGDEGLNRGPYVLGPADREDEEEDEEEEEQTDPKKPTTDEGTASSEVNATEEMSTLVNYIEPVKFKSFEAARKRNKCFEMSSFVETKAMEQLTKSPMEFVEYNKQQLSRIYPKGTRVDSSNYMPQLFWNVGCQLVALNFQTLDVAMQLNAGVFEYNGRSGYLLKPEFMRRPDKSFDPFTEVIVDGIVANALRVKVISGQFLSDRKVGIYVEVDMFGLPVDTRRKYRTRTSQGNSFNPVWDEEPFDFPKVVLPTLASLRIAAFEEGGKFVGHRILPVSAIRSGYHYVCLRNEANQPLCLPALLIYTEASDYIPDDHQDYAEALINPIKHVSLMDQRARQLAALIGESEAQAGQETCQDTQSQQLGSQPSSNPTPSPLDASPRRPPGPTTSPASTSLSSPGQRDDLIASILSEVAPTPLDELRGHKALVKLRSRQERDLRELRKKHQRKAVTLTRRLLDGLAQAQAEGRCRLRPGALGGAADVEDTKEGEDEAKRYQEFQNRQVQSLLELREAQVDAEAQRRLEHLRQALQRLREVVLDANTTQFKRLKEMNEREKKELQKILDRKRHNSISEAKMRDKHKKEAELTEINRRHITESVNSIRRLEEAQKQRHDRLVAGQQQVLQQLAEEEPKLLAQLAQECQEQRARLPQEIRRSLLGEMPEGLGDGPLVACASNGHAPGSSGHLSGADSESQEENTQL

[4] = biological target: Mitogen-activated protein kinase kinase kinase kinase 4 (Homo sapiens, UniProt O95819); type: functional
[5] = biological target: Mitogen-activated protein kinase 14 (Homo sapiens, UniProt Q16539); type: functional;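 also: part of a kinome-wide panel, MAPK14 entry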
[6] = biological target: Serine/threonine-protein kinase TAO1 (Homo sapiens, UniProt Q7L7X3); type: functional
Chain of Serine/threonine-protein kinase TAO1 (Q7L7X3 whole entry): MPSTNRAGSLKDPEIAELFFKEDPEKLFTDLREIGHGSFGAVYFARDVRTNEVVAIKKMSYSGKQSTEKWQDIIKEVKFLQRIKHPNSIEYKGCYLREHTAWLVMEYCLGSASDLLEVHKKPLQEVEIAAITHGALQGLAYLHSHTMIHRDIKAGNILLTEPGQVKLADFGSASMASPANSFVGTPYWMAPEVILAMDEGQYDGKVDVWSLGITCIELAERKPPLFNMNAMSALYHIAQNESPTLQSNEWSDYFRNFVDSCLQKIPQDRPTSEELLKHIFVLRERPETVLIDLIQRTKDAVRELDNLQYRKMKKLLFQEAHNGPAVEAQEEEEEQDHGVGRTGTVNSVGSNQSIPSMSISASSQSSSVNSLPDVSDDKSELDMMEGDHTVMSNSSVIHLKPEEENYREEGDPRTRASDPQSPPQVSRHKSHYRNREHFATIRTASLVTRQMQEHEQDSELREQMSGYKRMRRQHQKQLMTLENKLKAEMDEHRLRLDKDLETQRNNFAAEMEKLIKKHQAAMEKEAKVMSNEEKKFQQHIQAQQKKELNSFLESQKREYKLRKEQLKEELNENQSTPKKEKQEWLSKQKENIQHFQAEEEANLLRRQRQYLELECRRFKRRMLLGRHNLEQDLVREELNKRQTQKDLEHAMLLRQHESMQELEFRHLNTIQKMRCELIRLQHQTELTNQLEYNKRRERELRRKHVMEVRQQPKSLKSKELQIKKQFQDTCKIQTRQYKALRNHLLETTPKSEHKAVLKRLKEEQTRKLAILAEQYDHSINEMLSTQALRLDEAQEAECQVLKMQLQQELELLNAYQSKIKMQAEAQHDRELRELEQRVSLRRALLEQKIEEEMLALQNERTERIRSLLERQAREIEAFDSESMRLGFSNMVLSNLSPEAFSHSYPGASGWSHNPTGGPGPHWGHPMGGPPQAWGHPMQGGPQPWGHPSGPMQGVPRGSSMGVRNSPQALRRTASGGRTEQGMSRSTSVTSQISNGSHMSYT

Chain of Mitogen-activated protein kinase kinase kinase kinase 4 (O95819 whole entry): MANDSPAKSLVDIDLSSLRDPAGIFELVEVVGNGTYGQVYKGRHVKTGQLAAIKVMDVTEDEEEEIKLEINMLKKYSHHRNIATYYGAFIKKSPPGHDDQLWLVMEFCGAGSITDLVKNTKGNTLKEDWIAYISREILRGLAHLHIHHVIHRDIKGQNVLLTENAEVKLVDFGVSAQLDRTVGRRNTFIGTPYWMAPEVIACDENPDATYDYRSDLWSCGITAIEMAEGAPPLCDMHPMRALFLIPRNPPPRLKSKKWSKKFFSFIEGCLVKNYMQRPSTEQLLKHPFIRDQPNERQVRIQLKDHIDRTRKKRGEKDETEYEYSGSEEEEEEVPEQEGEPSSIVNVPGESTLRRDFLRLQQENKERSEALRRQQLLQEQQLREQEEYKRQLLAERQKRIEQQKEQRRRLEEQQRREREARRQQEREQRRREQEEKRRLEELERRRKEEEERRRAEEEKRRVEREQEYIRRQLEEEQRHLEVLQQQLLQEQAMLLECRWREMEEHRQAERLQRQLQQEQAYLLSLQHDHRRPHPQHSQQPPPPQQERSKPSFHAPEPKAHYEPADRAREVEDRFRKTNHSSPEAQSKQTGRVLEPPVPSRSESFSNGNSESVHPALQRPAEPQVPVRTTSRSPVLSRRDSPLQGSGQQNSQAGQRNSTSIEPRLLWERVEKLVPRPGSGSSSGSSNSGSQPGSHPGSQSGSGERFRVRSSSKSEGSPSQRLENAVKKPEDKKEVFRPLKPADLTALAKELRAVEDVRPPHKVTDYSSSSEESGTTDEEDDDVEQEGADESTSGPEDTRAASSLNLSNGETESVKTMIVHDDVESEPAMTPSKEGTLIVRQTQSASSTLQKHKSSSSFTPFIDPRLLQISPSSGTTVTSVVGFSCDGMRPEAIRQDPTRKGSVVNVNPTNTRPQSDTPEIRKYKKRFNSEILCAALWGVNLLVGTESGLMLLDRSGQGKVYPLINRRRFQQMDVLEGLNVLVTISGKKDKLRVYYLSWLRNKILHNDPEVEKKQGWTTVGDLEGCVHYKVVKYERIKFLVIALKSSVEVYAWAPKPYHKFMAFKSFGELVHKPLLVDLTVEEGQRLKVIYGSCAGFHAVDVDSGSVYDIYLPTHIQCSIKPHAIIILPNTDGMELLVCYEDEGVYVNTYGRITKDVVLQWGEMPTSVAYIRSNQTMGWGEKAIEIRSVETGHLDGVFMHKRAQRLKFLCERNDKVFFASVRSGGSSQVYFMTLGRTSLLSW
Chain of Mitogen-activated protein kinase 14 (Q16539 whole entry): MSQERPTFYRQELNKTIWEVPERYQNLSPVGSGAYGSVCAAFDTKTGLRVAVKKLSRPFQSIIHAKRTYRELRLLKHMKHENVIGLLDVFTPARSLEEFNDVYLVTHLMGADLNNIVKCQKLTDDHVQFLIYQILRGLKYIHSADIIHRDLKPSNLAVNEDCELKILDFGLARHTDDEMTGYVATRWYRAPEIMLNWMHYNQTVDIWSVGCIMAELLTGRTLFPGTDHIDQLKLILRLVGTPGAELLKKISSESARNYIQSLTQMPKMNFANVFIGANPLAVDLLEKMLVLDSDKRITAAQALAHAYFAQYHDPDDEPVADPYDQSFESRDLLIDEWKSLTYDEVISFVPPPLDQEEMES

Row | Compound | IC50 [1] | EC50 [2] | IC50 [3] | Ki [4] | Ki [5] | Ki [6]
1 | O=C1C=C(O)c2c(O)cc(O)c(O)c2C1=O | > 40.8 µM (inactive) | 1.07 µM (inconclusive) | > 122 µM (inactive) |  |  | 
2 | Cc1ccc(-c2cc3nc(Br)cnc3[nH]2)cc1 |  |  |  | > 5.01 µM (inactive) | > 3.98 µM (inactive) | > 6.31 µM (inactive)
